Source: patent publication US20200308170A1, “KRAS G12C INHIBITORS” (Mirati Therapeutics, Inc., priority 2017, published 2020)

Target: T1, KRas G12C (Homo sapiens, UniProt P01116, C118S/C51S/C80L/G12C)
T1 construct: GDP-loaded K-Ras (1-169) G12C, C51S, C80L, C118S
Test: KRas G12C Modification Assay (LCMS detection of covalent adduct)
Assay type: binding
Conditions: 5 μM concentration for 3 hours; LC/MS of intact protein; higher POC = higher degree of modification
Protocol: A 10 μL aliquot of each protein solution was then transferred to a 384 well microtiter plate. Initial compound stocks were generated at fifty times their desired final assay concentration in DMSO.
Exemplary compounds of Formula (II) were diluted 25-fold into K-Ras Assay Buffer to a final of two times their final concentration. A 10 μL aliquot of each diluted compound solution was then added to each of the protein solutions in the microtiter plate to initiate reaction. […] At each time point, the reactions were quenched with 20 μL of a 25 mM acetic acid solution. […] Once all reactions were quenched, the plates were heat sealed and the samples were injected into a LC/MS system for data acquisition.
Samples were injected in their liquid phase onto a C-3 reverse phase column to remove assay buffer and prepare the samples for mass spectrometer. The proteins were eluted from the column using an acetonitrile gradient and fed directly into the mass analyzer. Initial raw data analysis took place in Agilent MassHunter software immediately post data acquisition.
Raw data analysis of the intact protein was exclusively a deconvolution of the multiple charge states of each protein in solution using a maximum entropy deconvolution provided in Mass Hunter. To minimize complexity, only the data over limited mass ranges were considered for analysis, with a minimum of one Dalton mass step intervals. The heights of all masses identified during raw data analysis were exported to be further analyzed in Spotfire® data analysis software.
Final data analysis was a multistep process in the Spotfire® data analysis software package. Briefly, each protein mass was calculated as a percent of the total signal of that sample, that percentage was then normalized to the percentage of signal of the protein in the absence of reactive compounds. Those normalized signals were reported as normalized percent of control (POC). […] Key: “A”≤25% POC; “B”>25% POC−≤50% POC; “C”>50% POC and ND=not determined.

Row | POC (normalized percent of control; degree of covalent modification of KRas G12C) | Structure (SMILES)
1 | C (“C”>50% POC) | C=C(F)C(=O)N1CCN(c2nc(OC[C@@H]3CCCN3C)nc3c2CCN(c2cccc(C)c2C)C3)C[C@@H]1CC#N [Example 1, 2-[(2S)-4-[7-(2,3-dimethylphenyl)-2-[[(2S)-1-methylpyrrolidin-2-yl]methoxy]-6,8-dihydro-5H-pyrido[3,4-d]pyrimidin-4-yl]-1-(2-fluoroprop-2-enoyl)piperazin-2-yl]acetonitrile]
2 | C (“C”>50% POC) | C=C(Cl)C(=O)N1CCN(c2nc(OC[C@@H]3CCCN3C)nc3c2CCN(c2cccc(C)c2C)C3)C[C@@H]1CC#N [Example 2, 2-[(2S)-1-(2-chloroprop-2-enoyl)-4-[7-(2,3-dimethylphenyl)-2-[[(2S)-1-methylpyrrolidin-2-yl]methoxy]-6,8-dihydro-5H-pyrido[3,4-d]pyrimidin-4-yl]piperazin-2-yl]acetonitrile]
3 | C (“C”>50% POC) | CN1CCC[C@H]1COc1nc2c(c(N3CCN(C(=O)C#CCO)[C@@H](CC#N)C3)n1)CCN(c1cccc3ccccc13)C2 [Example 3, 2-((S)-1-(4-hydroxybut-2-ynoyl)-4-(2-(((S)-1-methylpyrrolidin-2-yl)methoxy)-7-(naphthalen-1-yl)-5,6,7,8-tetrahydropyrido[3,4-d]pyrimidin-4-yl)piperazin-2-yl)acetonitrile]
4 | C (“C”>50% POC) | Cc1cccc(N2CCc3c(nc(OC[C@@H]4CCCN4C)nc3N3CCN(C(=O)/C=C/CN4CCC(F)C4)[C@@H](CC#N)C3)C2)c1C (stereo partly drawn) [Example 5, 2-[(2S)-4-[7-(2,3-dimethylphenyl)-2-[[(2S)-1-methylpyrrolidin-2-yl]methoxy]-6,8-dihydro-5H-pyrido[3,4-d]pyrimidin-4-yl]-1-[(E)-4-(3-fluoropyrrolidin-1-yl)but-2-enoyl]piperazin-2-yl]acetonitrile]
5 | C (“C”>50% POC) | CN1CCC[C@H]1COc1nc2c(c(N3CCN(C(=O)/C=C/CF)[C@@H](CC#N)C3)n1)CCN(c1cccc3cccc(Cl)c13)C2 [Example 8, 2-[(2S)-4-[7-(8-chloro-1-naphthyl)-2-[[(2S)-1-methylpyrrolidin-2-yl]methoxy]-6,8-dihydro-5H-pyrido[3,4-d]pyrimidin-4-yl]-1-[(E)-4-fluorobut-2-enoyl]piperazin-2-yl]acetonitrile]
6 | C (“C”>50% POC) | CN1CCC[C@H]1COc1nc2c(c(N3CCN(C(=O)/C=C/CN4CCC(F)C4)[C@@H](CC#N)C3)n1)CCN(c1cccc3cccc(Cl)c13)C2 (stereo partly drawn) [Example 9, 2-[(2S)-4-[7-(8-chloro-1-naphthyl)-2-[[(2S)-1-methylpyrrolidin-2-yl]methoxy]-6,8-dihydro-5H-pyrido[3,4-d]pyrimidin-4-yl]-1-[(E)-4-(3-fluoropyrrolidin-1-yl)but-2-enoyl]piperazin-2-yl]acetonitrile]
7 | C (“C”>50% POC) | CN1CCC[C@H]1COc1nc2c(c(N3CCN(C(=O)/C=C/CN4CC(F)C4)[C@@H](CC#N)C3)n1)CCN(c1cccc3cccc(Cl)c13)C2 [Example 10, 2-[(2S)-4-[7-(8-chloro-1-naphthyl)-2-[[(2S)-1-methylpyrrolidin-2-yl]methoxy]-6,8-dihydro-5H-pyrido[3,4-d]pyrimidin-4-yl]-1-[(E)-4-(3-fluoroazetidin-1-yl)but-2-enoyl]piperazin-2-yl]acetonitrile]
8 | C (“C”>50% POC) | CN(C/C=C/C(=O)N1CCN(c2nc(OC[C@@H]3CCCN3C)nc3c2CCN(c2cccc4cccc(Cl)c24)C3)C[C@@H]1CC#N)CC(F)(F)F [Example 11, 2-[(2S)-4-[7-(8-chloro-1-naphthyl)-2-[[(2S)-1-methylpyrrolidin-2-yl]methoxy]-6,8-dihydro-5H-pyrido[3,4-d]pyrimidin-4-yl]-1-[(E)-4-[methyl(2,2,2-trifluoroethyl)amino]but-2-enoyl]piperazin-2-yl]acetonitrile]
9 | C (“C”>50% POC) | CN1CCC[C@H]1COc1nc2c(c(N3CCN(C(=O)C#CCO)[C@@H](CC#N)C3)n1)CCN(c1cccc3cccc(Cl)c13)C2 [Example 12, 2-[(2S)-4-[7-(8-chloro-1-naphthyl)-2-[[(2S)-1-methylpyrrolidin-2-yl]methoxy]-6,8-dihydro-5H-pyrido[3,4-d]pyrimidin-4-yl]-1-(4-hydroxybut-2-ynoyl)piperazin-2-yl]acetonitrile]
10 | C (“C”>50% POC) | CN1CCC[C@H]1COc1nc2c(c(N3CCN(C(=O)/C=C/C(F)F)[C@@H](CC#N)C3)n1)CCN(c1cccc3cccc(Cl)c13)C2 [Example 13, 2-[(2S)-4-[7-(8-chloro-1-naphthyl)-2-[[(2S)-1-methylpyrrolidin-2-yl]methoxy]-6,8-dihydro-5H-pyrido[3,4-d]pyrimidin-4-yl]-1-[(E)-4,4-difluorobut-2-enoyl]piperazin-2-yl]acetonitrile]
11 | A (“A”≤25% POC) | C=C(COC)C(=O)N1CCN(c2nc(OC[C@@H]3CCCN3C)nc3c2CCN(c2cccc4cccc(Cl)c24)C3)C[C@@H]1CC#N [Example 14, 2-[(2S)-4-[7-(8-chloro-1-naphthyl)-2-[[(2S)-1-methylpyrrolidin-2-yl]methoxy]-6,8-dihydro-5H-pyrido[3,4-d]pyrimidin-4-yl]-1-[2-(methoxymethyl)prop-2-enoyl]piperazin-2-yl]acetonitrile]

Row | Structure (SMILES) | POC (normalized percent of control; degree of covalent modification of KRas G12C)
12 | [2H]C([2H])=C([2H])C(=O)N1CCN(c2nc(OC[C@@H]3CCCN3C)nc3c2CCN(c2cccc4ccccc24)C3)C[C@@H]1CC#N [Example 4, 2-[(2S)-4-[2-[[(2S)-1-methylpyrrolidin-2-yl]methoxy]-7-(1-naphthyl)-6,8-dihydro-5H-pyrido[3,4-d]pyrimidin-4-yl]-1-(2,3,3-trideuterioprop-2-enoyl)piperazin-2-yl]acetonitrile] | C (“C”>50% POC)

Target: KRas G12C (Homo sapiens, UniProt P01116, G12C)
Test: Inhibition of KRas G12C in NCI-H358 cells measured by phosphorylated ERK (Phospho-ERK)
Assay type: cell-based
Conditions: 3 hours, 4 parameter fit, read-out: IC50 (pERK(Thr202/Tyr204) signal normalized with GAPDH)
Protocol: Cells were plated in poly-D-Lysine coated 96-well plates at a concentration of 50,000 cells/well and allowed to attach for 8-12 hours. Diluted compounds were then added at a final concentration of 0.5% DMSO. After 3 hours, the medium was removed, 150 μL of 4% formaldehyde was added and the plates were incubated for 20 minutes. The plates were washed with PBS, and permeabilized using 150 μL of ice cold 100% methanol for 10 minutes. Non-specific antibody binding to the plates was blocked using 100 μL Licor Blocking Buffer (Li-Cor Biotechnology, Lincoln Nebr.) for 1 hour at room temperature. Positive control samples and samples lacking cells were parallel processed with test samples as standards.
The amount Phospho-ERK was determined using an antibody specific for the phosphorylated form of ERK and compared to the amount of GAPDH. […] The plates were incubated for 2 hours at room temperature. The plates were washed with PBS+0.05% Tween 20.
Secondary antibodies used to visualize primary antibodies were added as follows: Anti-rabbit-680 diluted 1:1000 and Anti-mouse-800 diluted 1:1000 in Licor Block+0.05% Tween 20 and incubated for 1 hour at room temperature. The plates were washed with PBS+0.05% Tween 20. A 100 μL aliquot of PBS was added to each well and the plates were read on a LICOR AERIUS plate reader.
The pERK(Thr202/Tyr204) signal was normalized with the GAPDH signal and percent of DMSO control values were calculated. IC50 values were generated using a 4 parameter fit of the dose response curve.

Row | IC50 [nM] | Structure (SMILES)
13 | 0.1 to 1000 | C=C(F)C(=O)N1CCN(c2nc(OC[C@@H]3CC(F)(F)CN3)nc3c2CCN(c2cccc4ccc(F)c(Cl)c24)C3)C[C@@H]1CC#N [Example 208, 2-((S)-4-(7-(8-chloro-7-fluoronaphthalen-1-yl)-2-(((S)-4,4-difluoropyrrolidin-2-yl)methoxy)-5,6,7,8-tetrahydropyrido[3,4-d]pyrimidin-4-yl)-1-(2-fluoroacryloyl)piperazin-2-yl)acetonitrile]
14 | 0.1 to 1000 | C=C(F)C(=O)N1CCN(c2nc(OC[C@@H]3C[C@@H](F)CN3)nc3c2CCN(c2cccc4ccc(F)c(Cl)c24)C3)C[C@@H]1CC#N [Example 209, 2-((S)-4-(7-(8-chloro-7-fluoronaphthalen-1-yl)-2-(((2S,4R)-4-fluoropyrrolidin-2-yl)methoxy)-5,6,7,8-tetrahydropyrido[3,4-d]pyrimidin-4-yl)-1-(2-fluoroacryloyl)piperazin-2-yl)acetonitrile]
15 | 0.1 to 1000 | C=C(F)C(=O)N1CCN(c2nc(OC[C@@H]3C[C@@H](OC)CN3)nc3c2CCN(c2cccc4ccc(F)c(Cl)c24)C3)C[C@@H]1CC#N [Example 210, 2-((S)-4-(7-(8-chloro-7-fluoronaphthalen-1-yl)-2-(((2S,4R)-4-methoxypyrrolidin-2-yl)methoxy)-5,6,7,8-tetrahydropyrido[3,4-d]pyrimidin-4-yl)-1-(2-fluoroacryloyl)piperazin-2-yl)acetonitrile]
16 | 0.1 to 1000 | C=C(F)C(=O)N1CCN(c2nc(OCCNCC(F)F)nc3c2CCN(c2cccc4ccc(F)c(Cl)c24)C3)C[C@@H]1CC#N [Example 211, (S)-2-(4-(7-(8-chloro-7-fluoronaphthalen-1-yl)-2-(2-((2,2-difluoroethyl)amino)ethoxy)-5,6,7,8-tetrahydropyrido[3,4-d]pyrimidin-4-yl)-1-(2-fluoroacryloyl)piperazin-2-yl)acetonitrile]
